Laboratory results: US9212182B2, “Bicyclic sulfonamide compounds as sodium channel inhibitors” (AMGEN INC., priority 2013, dated 2015)

Molecular target: Nav 1.7 (Homo sapiens (Human), UniProt Q15858)
Assay: in-vitro Nav 1.7 PX (IC50)
Format: cell-based
Conditions: not given

Nav 1.7, sequence (Q15858 whole entry): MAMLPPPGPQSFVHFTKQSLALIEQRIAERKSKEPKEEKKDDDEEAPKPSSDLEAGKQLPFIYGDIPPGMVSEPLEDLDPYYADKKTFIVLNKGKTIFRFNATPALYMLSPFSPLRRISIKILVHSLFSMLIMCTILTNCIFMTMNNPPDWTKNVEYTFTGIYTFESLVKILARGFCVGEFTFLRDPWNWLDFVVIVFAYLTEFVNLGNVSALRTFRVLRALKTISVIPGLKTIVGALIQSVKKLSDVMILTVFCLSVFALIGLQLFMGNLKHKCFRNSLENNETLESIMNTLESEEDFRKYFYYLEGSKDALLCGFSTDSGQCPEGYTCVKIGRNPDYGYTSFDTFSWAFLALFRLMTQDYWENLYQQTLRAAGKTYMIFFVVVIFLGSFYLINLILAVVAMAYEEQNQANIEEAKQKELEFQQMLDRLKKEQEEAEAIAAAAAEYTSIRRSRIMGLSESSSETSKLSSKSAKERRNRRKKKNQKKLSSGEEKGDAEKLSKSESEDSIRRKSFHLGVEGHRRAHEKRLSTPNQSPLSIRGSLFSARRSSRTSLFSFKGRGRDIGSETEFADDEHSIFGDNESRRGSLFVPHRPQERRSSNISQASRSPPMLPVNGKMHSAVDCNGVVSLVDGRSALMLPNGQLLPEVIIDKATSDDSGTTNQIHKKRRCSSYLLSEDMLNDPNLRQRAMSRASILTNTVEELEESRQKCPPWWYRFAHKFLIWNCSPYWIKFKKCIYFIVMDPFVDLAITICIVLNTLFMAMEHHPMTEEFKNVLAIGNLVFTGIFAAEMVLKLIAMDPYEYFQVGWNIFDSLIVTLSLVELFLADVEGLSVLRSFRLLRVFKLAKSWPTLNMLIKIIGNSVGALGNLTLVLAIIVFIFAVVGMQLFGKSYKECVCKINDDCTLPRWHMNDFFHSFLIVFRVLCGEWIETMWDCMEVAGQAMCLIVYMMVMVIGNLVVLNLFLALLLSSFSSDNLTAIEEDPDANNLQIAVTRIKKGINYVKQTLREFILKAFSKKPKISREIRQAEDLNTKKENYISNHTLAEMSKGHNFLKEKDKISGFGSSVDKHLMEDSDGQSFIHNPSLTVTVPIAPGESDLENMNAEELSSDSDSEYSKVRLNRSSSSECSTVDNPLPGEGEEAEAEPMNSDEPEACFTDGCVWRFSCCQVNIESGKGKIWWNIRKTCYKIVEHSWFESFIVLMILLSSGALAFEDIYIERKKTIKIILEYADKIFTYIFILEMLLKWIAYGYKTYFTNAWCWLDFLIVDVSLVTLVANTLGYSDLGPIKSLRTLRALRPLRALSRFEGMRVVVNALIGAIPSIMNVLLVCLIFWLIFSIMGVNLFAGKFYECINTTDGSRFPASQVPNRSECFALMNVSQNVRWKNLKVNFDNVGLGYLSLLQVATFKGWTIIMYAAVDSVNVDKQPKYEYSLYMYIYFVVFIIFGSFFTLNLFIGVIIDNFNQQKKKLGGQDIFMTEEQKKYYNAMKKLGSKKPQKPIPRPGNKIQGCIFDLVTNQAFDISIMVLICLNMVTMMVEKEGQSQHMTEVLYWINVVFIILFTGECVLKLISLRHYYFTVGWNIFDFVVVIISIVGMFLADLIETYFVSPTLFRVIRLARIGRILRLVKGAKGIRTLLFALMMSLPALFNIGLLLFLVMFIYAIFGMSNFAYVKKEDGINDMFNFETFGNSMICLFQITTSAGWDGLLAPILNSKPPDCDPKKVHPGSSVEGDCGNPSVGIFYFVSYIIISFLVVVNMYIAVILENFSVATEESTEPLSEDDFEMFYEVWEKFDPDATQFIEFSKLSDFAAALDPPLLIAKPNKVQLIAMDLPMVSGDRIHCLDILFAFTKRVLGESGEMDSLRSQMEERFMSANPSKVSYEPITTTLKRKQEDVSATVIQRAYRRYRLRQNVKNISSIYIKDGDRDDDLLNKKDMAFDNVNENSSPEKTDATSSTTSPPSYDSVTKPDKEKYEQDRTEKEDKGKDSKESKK

Row | Structure (SMILES) | IC50 [nM]
1 | COc1cc(-c2ccc(Cl)c(C)c2)c(F)cc1-n1c(=O)c(OC)cc2cc(S(=O)(=O)Nc3ccon3)ccc21 (atropisomer, axis not shown; (P)) [Example 414, (P)-1-(4′-chloro-2-fluoro-5-methoxy-3′-methyl-[1,1′-biphenyl]-4-yl)-N-(isoxazol-3-yl)-3-methoxy-2-oxo-1,2-dihydroquinoline-6-sulfonamide] | 13
2 | COc1cc(-c2cccc(F)c2)c(Cl)cc1-n1c(=O)ccc2cc(S(=O)(=O)Nc3ccncn3)ccc21 (atropisomer, axis not shown; (M)) [Example 466, (M)-1-(2-chloro-3′-fluoro-5-methoxy-[1,1′-biphenyl]-4-yl)-2-oxo-N-(pyrimidin-4-yl)-1,2-dihydroquinoline-6-sulfonamide] | 4320

More lines, now with the values ahead:

Row | IC50 [nM] | Structure (SMILES)
3 | 2130 | COc1cc(C[C@@H]2CCOC2)c(F)cc1-n1c(=O)ccc2cc(S(=O)(=O)Nc3ccon3)ccc21 (atropisomer, axis not shown; (P)) [Example 1235, (P)-1-(5-fluoro-2-methoxy-4-((3R)-tetrahydro-3-furanylmethyl)phenyl)-N-3-isoxazolyl-2-oxo-1,2-dihydro-6-quinolinesulfonamide]
4 | 115 | COc1nc(N(C)C2CCCC2)c(Cl)cc1-n1c(=O)ccc2cc(S(=O)(=O)Nc3ccon3)ccc21 [Example 1231, 1-(5-chloro-6-(cyclopentyl(methyl)amino)-2-methoxy-3-pyridinyl)-N-3-isoxazolyl-2-oxo-1,2-dihydro-6-quinolinesulfonamide]
5 | 1020 | COc1cc(-c2ccc(C)c(Cl)c2)ccc1-n1c(=O)ccc2cc(S(=O)(=O)Nc3ccon3)ccc21 (atropisomer, axis not shown; (M)) [Example 588, (M)-1-(3′-chloro-3-methoxy-4′-methyl-4-biphenylyl)-N-3-isoxazolyl-2-oxo-1,2-dihydro-6-quinolinesulfonamide]
6 | 172 | COc1nc(OCc2ccc(F)cc2F)c(Cl)cc1-n1c(=O)ccc2cc(S(=O)(=O)Nc3ccon3)ccc21 [Example 1213, 1-(5-chloro-6-((2,4-difluorobenzyl)oxy)-2-methoxy-3-pyridinyl)-N-3-isoxazolyl-2-oxo-1,2-dihydro-6-quinolinesulfonamide]
7 | 507 | COc1nc(NCC2(C)CCCC2)c(Cl)cc1-n1c(=O)ccc2cc(S(=O)(=O)Nc3ccon3)ccc21 [Example 1236, 1-(5-chloro-2-methoxy-6-(((1-methylcyclopentyl)methyl)amino)-3-pyridinyl)-N-3-isoxazolyl-2-oxo-1,2-dihydro-6-quinolinesulfonamide]

Same assay, conditions: in-vitro Nav 1.7 PX data

Row | Structure (SMILES) | IC50 [nM]
8 | COc1cc(-c2ccccc2Cl)c(F)cc1-n1c(=O)ccc2cc(S(=O)(=O)Nc3ccon3)ccc21 [Example 952, 1-(2′-chloro-2-fluoro-5-methoxy-4-biphenylyl)-N-3-isoxazolyl-2-oxo-1,2-dihydro-6-quinolinesulfonamide] | 62
9 | COc1nc(-c2cccc(C#N)c2)c(Cl)cc1-n1c(=O)ccc2cc(S(=O)(=O)Nc3ccon3)ccc21 [Example 1090, 1-(5-chloro-6-(3-cyanophenyl)-2-methoxy-3-pyridinyl)-N-3-isoxazolyl-2-oxo-1,2-dihydro-6-quinolinesulfonamide] | 201
10 | COc1cc(-c2cccc(C(F)(F)F)c2)ccc1-n1c(=O)ccc2cc(S(=O)(=O)Nc3cncc(C)n3)ccc21 [Example 950, 1-(3-methoxy-3′-(trifluoromethyl)-4-biphenylyl)-N-(6-methyl-2-pyrazinyl)-2-oxo-1,2-dihydro-6-quinolinesulfonamide] | 99
11 | COc1cc(-c2cc(C)cnc2OC)c(F)cc1-n1c(=O)ccc2cc(S(=O)(=O)Nc3ccon3)ccc21 [Example 715, 1-(5-fluoro-2-methoxy-4-(2-methoxy-5-methyl-3-pyridinyl)phenyl)-N-3-isoxazolyl-2-oxo-1,2-dihydro-6-quinolinesulfonamide] | 151
12 | COc1ccc(-c2ccc(F)c(C#N)c2)cc1-n1c(=O)ccc2cc(S(=O)(=O)Nc3ccon3)ccc21 [Example 834, 1-(3′-cyano-4′-fluoro-4-methoxy-3-biphenylyl)-N-3-isoxazolyl-2-oxo-1,2-dihydro-6-quinolinesulfonamide] | 294
13 | COc1cc(-c2ccc(C)c(F)c2)c(F)cc1-n1c(=O)ccc2cc(S(=O)(=O)Nc3cccnn3)ccc21 [Example 1128, 1-(2,3′-difluoro-5-methoxy-4′-methyl-4-biphenylyl)-2-oxo-N-3-pyridazinyl-1,2-dihydro-6-quinolinesulfonamide] | 36

The next lines start with the values.

Row | IC50 [nM] | Structure (SMILES)
14 | 8 | COc1cc(Cl)cc(-c2ccc(-n3c(=O)ccc4cc(S(=O)(=O)Nc5cccnn5)ccc43)c(OC)c2)c1 [Example 928, 1-(3′-chloro-3,5′-dimethoxy-4-biphenylyl)-2-oxo-N-3-pyridazinyl-1,2-dihydro-6-quinolinesulfonamide]
15 | 51 | COc1cc(-c2cccc(C(F)(F)F)c2)ccc1-n1c(=O)ccc2cc(S(=O)(=O)Nc3ccnc(C)n3)ccc21 [Example 947, 1-(3-methoxy-3′-(trifluoromethyl)-4-biphenylyl)-N-(2-methyl-4-pyrimidinyl)-2-oxo-1,2-dihydro-6-quinolinesulfonamide]
16 | 15 | COc1ccc(-c2ccc(Cl)c(C)c2)cc1-n1c(=O)ccc2cc(S(=O)(=O)Nc3ccon3)ccc21 [Example 875, 1-(4′-chloro-4-methoxy-3′-methyl-3-biphenylyl)-N-3-isoxazolyl-2-oxo-1,2-dihydro-6-quinolinesulfonamide]
17 | 128 | COc1cc(-c2ccc(Cl)c(C)c2)c(F)cc1-n1c(=O)ccc2cc(S(=O)(=O)Nc3cc(C)on3)ccc21 [Example 931, 1-(4′-chloro-2-fluoro-5-methoxy-3′-methyl-4-biphenylyl)-N-(5-methyl-3-isoxazolyl)-2-oxo-1,2-dihydro-6-quinolinesulfonamide]
18 | 251 | COc1ccc(-c2cc(F)cc(Cl)c2)cc1-n1c(=O)ccc2cc(S(=O)(=O)Nc3cnccn3)ccc21 [Example 860, 1-(3′-chloro-5′-fluoro-4-methoxy-3-biphenylyl)-2-oxo-N-2-pyrazinyl-1,2-dihydro-6-quinolinesulfonamide]
19 | 2810 | COc1cc(-c2ccnc(C)c2)c(F)cc1-n1c(=O)ccc2cc(S(=O)(=O)Nc3ccon3)ccc21 [Example 736, 1-(5-fluoro-2-methoxy-4-(2-methyl-4-pyridinyl)phenyl)-N-3-isoxazolyl-2-oxo-1,2-dihydro-6-quinolinesulfonamide]
20 | 15 | COc1nc(-c2cc(F)cc(F)c2)c(Cl)cc1-n1c(=O)ccc2cc(S(=O)(=O)Nc3ccon3)ccc21 (atropisomer, axis not shown; (P)) [Example 665, (P)-1-(5-chloro-6-(3,5-difluorophenyl)-2-methoxy-3-pyridinyl)-N-3-isoxazolyl-2-oxo-1,2-dihydro-6-quinolinesulfonamide]

Same assay, conditions: in-vitro Nav 1.7 PX data (PatchXpress)

Row | Structure (SMILES) | IC50 [nM]
21 | COc1cc(-c2cc(OC)c(-n3c(=O)ccc4cc(S(=O)(=O)Nc5ncco5)ccc43)cc2F)ccc1Cl [Example 1040, 1-(4′-chloro-2-fluoro-3′,5-dimethoxy-4-biphenylyl)-N-1,3-oxazol-2-yl-2-oxo-1,2-dihydro-6-quinolinesulfonamide] | 31
22 | COc1cc(-c2ccccc2C(F)(F)F)ccc1-n1c(=O)ccc2cc(S(=O)(=O)Nc3ccon3)ccc21 [Example 1052, N-3-isoxazolyl-1-(3-methoxy-2′-(trifluoromethyl)-4-biphenylyl)-2-oxo-1,2-dihydro-6-quinolinesulfonamide] | 54

Next, values leading:

Row | IC50 [nM] | Structure (SMILES)
23 | 49 | COc1cc(-c2cc(C)ccc2F)ccc1-n1c(=O)ccc2cc(S(=O)(=O)Nc3ccon3)ccc21 [Example 1032, 1-(2′-fluoro-3-methoxy-5′-methyl-4-biphenylyl)-N-3-isoxazolyl-2-oxo-1,2-dihydro-6-quinolinesulfonamide]
24 | 11 | COc1cc(-c2cccc(Cl)c2F)ccc1-n1c(=O)ccc2cc(S(=O)(=O)Nc3ccon3)ccc21 [Example 1057, 1-(3′-chloro-2′-fluoro-3-methoxy-4-biphenylyl)-N-3-isoxazolyl-2-oxo-1,2-dihydro-6-quinolinesulfonamide]

Same assay, conditions: in-vitro PatchXpress (PX)

Row | Structure (SMILES) | IC50 [nM]
25 | COc1cc(-c2ccc(Cl)c(C#N)c2)c(F)cc1-n1c(=O)ccc2cc(S(=O)(=O)Nc3ccon3)ccc21 (atropisomer, axis not shown; (M)) [Example 509, (M)-1-(4′-chloro-3′-cyano-2-fluoro-5-methoxy-4-biphenylyl)-N-3-isoxazolyl-2-oxo-1,2-dihydro-6-quinolinesulfonamide] | 1680
26 | COc1cc(-c2ccc(C)c(F)c2)c(F)cc1-n1c(=O)ccc2cc(S(=O)(=O)Nc3ccon3)ccc21 (atropisomer, axis not shown; (M)) [Example 511, (M)-1-(2,3′-difluoro-5-methoxy-4′-methyl-4-biphenylyl)-N-3-isoxazolyl-2-oxo-1,2-dihydro-6-quinolinesulfonamide] | 8620

Further lines, results first:

Row | IC50 [nM] | Structure (SMILES)
27 | 26 | COc1cc(-c2ccc(C#N)c(Cl)c2)c(F)cc1-n1c(=O)ccc2cc(S(=O)(=O)Nc3ccon3)ccc21 (atropisomer, axis not shown; (P)) [Example 520, (P)-1-(3′-chloro-4′-cyano-2-fluoro-5-methoxy-4-biphenylyl)-N-3-isoxazolyl-2-oxo-1,2-dihydro-6-quinolinesulfonamide]
28 | 282 | COc1cc(-c2cnc(C)c(Cl)c2)c(F)cc1-n1c(=O)ccc2cc(S(=O)(=O)Nc3ccon3)ccc21 [Example 532, 1-(4-(5-chloro-6-methyl-3-pyridinyl)-5-fluoro-2-methoxyphenyl)-N-3-isoxazolyl-2-oxo-1,2-dihydro-6-quinolinesulfonamide]
29 | 16 | COc1cc(-c2cc(Cl)cc(C#N)c2)c(F)cc1-n1c(=O)ccc2cc(S(=O)(=O)Nc3ccon3)ccc21 (atropisomer, axis not shown; (M)) [Example 519, (M)-1-(3′-chloro-5′-cyano-2-fluoro-5-methoxy-4-biphenylyl)-N-3-isoxazolyl-2-oxo-1,2-dihydro-6-quinolinesulfonamide]
